Where two headings read alike, the source gives them in different places. Starred links: 1 amine or outer side, 2 acyl side, 3 side chain; linkers in the order of their positions; H or OH if unused. Positions of bridges follow the written chain, without caps; N, C: chain ends. Non-standard residues stand in square brackets, D forms with d. Residues, ends and D or L forms follow the SMILES beside them. Groups on a side chain read outwards from the residue. *: point of attachment. Phe(3-OCH2COOH) = N[C@@H](Cc1cccc(OCC(=O)O)c1)C(=O)O; Trp(6-OH) = N[C@@H](Cc1c[nH]c2cc(O)ccc12)C(=O)O; Phe(4-COOH) = N[C@@H](Cc1ccc(C(=O)O)cc1)C(=O)O; Trp(7-aza) = N[C@@H](Cc1c[nH]c2ncccc12)C(=O)O; Piperazinyl(4-CH2COOH) = O=C(O)CN1CCN(*)CC1; Piperidinyl(4-CH2COOH) = O=C(O)CC1CCN(*)CC1; Gly(decyl) = CCCCCCCCCC[C@H](N)C(=O)O; Gly(N(CH2)3COOH) = O=C(O)CCCNCC(=O)O; X1 = CCCCCCC[C@H](N[*:1])C(=O)[*:2]; NMeF = CN[C@@H](Cc1ccccc1)C(=O)O; NMeE = CN[C@@H](CCC(=O)O)C(=O)O; Cha = N[C@@H](CC1CCCCC1)C(=O)O; X12 = O=C(O)CCC1CCN(*)CC1; NMeA = CN[C@@H](C)C(=O)O; Dap = NC[C@H](N)C(=O)O; CO = O=C([*:1])[*:2]; Sar = CNCC(=O)O

Test [1] has as its target T1, Myostatin (Homo sapiens, UniProt O14793).
T1 construct: active myostatin (also called mature myostatin) is a homodimer consisting of two C-terminal growth factor domains; purchased R&D systems 788-G8/CF
T1 sequence (O14793 267-375): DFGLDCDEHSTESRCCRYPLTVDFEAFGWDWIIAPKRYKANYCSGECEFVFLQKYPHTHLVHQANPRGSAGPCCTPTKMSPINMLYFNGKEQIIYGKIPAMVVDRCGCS
As to the kind of experiment: HepG2 reporter gene assay, Evaluation Procedure (2): 2-concentrations assay, myostatin inhibition. It counts as cell-based. To be noted: HepG2. The method, then:
(§1) The pGL3(CAGA)12-luc plasmid, namely a pGL3 vector (E1751, Promega) having a luciferase gene inserted downstream of a promoter sequence with 12 CAGA repeats attached, was transfected into HepG2 cell line (HB-8065, ATCC). The culture of HepG2 cell line (HB-8065, ATCC) was performed as in the Evaluation Procedure (1).
(§2) Myostatin (788-G8/CF, R&D systems) or GDF-11 (1958-GD-G8/CF, R&D systems) was added at a final concentration of 10 ng/mL. […] At this time, blank wells, in which neither myostatin, GDF-11, nor each peptide was added, were also prepared and incubated in a CO2 incubator (37°C, 5% CO2) for 20 to 24 hours.
(§3) The medium containing the cells was removed, and a mixture containing PBS (14190144, Thermo) and a chromogenic substrate One-Glo Luciferase Assay System (E6120, Promega) at a ratio of 1:1 was added to each well at 100 µL/well. This was stirred with a plate shaker for 5 min and transferred to a 384-well plate (3570, Corning) at a volume of 20 µL/well.
(§4) The plate was centrifuged at 1,000 × g for 1 min and the luminescence signal (700 nm luminescence) was measured using a plate reader (Envision 2104, PerkinElmer). Based on the measurement results, the inhibition rate at each peptide concentration was calculated. […]

Test [2] concerns the target T2, GDF-11 (Homo sapiens, UniProt O95390).
T2 construct: purchased R&D systems 1958-GD-G8/CF
T2 sequence (O95390 299-407): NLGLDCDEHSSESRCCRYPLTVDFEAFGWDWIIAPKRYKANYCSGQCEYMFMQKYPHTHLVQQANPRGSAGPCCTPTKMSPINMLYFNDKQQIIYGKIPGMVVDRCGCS
As to the kind of experiment: HepG2 reporter gene assay, Evaluation Procedure (2): 2-concentrations assay, GDF-11 inhibition. Type of test: cell-based. To be noted: for inhibition at 0.03 µM: HepG2, peptide 30nM, read-out: GDF11 Inhibition 30nM; for inhibition at 0.03 µM / inhibition at 0.1 µM: GDF-11 10 ng/mL; for inhibition at 0.1 µM: HepG2, peptide 100nM, read-out: GDF11 Inhibition 100nM; for inhibition: read-out: inhibition rate (GDF-11 inhibition assay). The method, then:
as §1, §2, §3, §4

The mark [3] stands for this setting: peptide 30nM, Myostatin 10 ng/mL, read-out: Myostatin Inhibition 30nM.
The mark [4] stands for this setting: peptide 100nM, Myostatin 10 ng/mL, read-out: Myostatin Inhibition 100nM.
Where [5] appears, read: Table 7-3/7-4, myostatin 10 ng/mL, peptide at the higher of the 2 concentrations, read-out: inhibition rate (myostatin inhibition assay).
[6] abbreviates: Table 7-3/7-4, myostatin 10 ng/mL, peptide at the lower of the 2 concentrations, read-out: inhibition rate (myostatin inhibition assay).
[7] abbreviates: HepG2, first GDF-11 column of Table 7-3/7-4, GDF-11 10 ng/mL, peptide at the lower of the 2 concentrations.
Setting [8] is: HepG2, second GDF-11 column of Table 7-3/7-4, GDF-11 10 ng/mL, peptide at the higher of the 2 concentrations.

The term inhibition denotes the share of the control response that was lost under treatment. Turning to `CCCCCCCCCC[C@@H]1NC(=O)[C@H](CC2CCCCC2)NC(=O)[C@H](CCCNC(=N)N)NC(=O)[C@H](Cc2ccc(C(=O)O)cc2)NC(=O)[C@H](Cc2cccc(OCC(=O)O)c2)NC(=O)CN(C)C(=O)[C@H]([C@@H](C)CC)NC(=O)[C@H](Cc2ccccc2)N(C)C(=O)[C@H](Cc2ccc(O)cc2)NC(=O)[C@H](Cc2c[nH]c3ccccc23)NC(=O)[C@@H](CCCCNC(=O)N2CCN(CC(=O)O)CC2)NC(=O)[C@H](C)NC(=O)CSC[C@H](C(=O)N2CCN(CC(=O)O)CC2)NC(=O)[C@H](Cc2ccccc2)N(C)C(=O)[C@H](C)N(C)C1=O` [Myostatin_99_v260] ({CH2CO}-A[dK]([CO-Piperazinyl(4-CH2COOH)])WY[NMeF]I[Sar][Phe(3-OCH2COOH)][Phe(4-COOH)]R[Cha][Gly(decyl)][NMeA][NMeF][dC]-{Piperazinyl(4-CH2COOH)}; thioether N-15), the inhibition at 0.03 µM in test [1] (setting [3]) worked out at 100%; in test [2] it was 37%. Also, the inhibition at 0.1 µM in test [1] (setting [4]) was found to be 100%; in test [2], 75%.
Turning to `CC[C@H](C)[C@@H]1NC(=O)[C@H](Cc2ccccc2)N(C)C(=O)[C@H](Cc2ccc(O)cc2)NC(=O)[C@H](Cc2c[nH]c3ccccc23)NC(=O)[C@H](CN)NC(=O)[C@H](C)NC(=O)CSC[C@H](C(=O)N[C@@H](CN)C(N)=O)NC(=O)[C@H](Cc2ccccc2)N(C)C(=O)[C@H](C)N(C)C(=O)[C@H](CC(C)C)NC(=O)[C@H](Cc2ccccc2)N(C)C(=O)[C@H](CCCNC(=N)N)NC(=O)[C@H](Cc2ccc(O)cc2)NC(=O)[C@H](Cc2ccc(O)cc2)NC(=O)CN(C)C1=O` [Myostatin_99_Variant_08] ({CH2CO}-A[Dap]WY[NMeF]I[Sar]YYR[NMeF]L[NMeA][NMeF][dC][Dap]-NH2; thioether N-15), the values for the inhibition at 0.03 µM in test [1] (setting [3]) and in test [2] were 72% and 7%, respectively. In addition, the inhibition at 0.1 µM came to 92% in test [1] (setting [4]) and 22% in test [2].
As for `CCCCCCCCCC[C@@H]1NC(=O)[C@H](Cc2ccccc2)N(C)C(=O)[C@H](CCCNC(=N)N)NC(=O)[C@H](Cc2ccc(C(=O)O)cc2)NC(=O)[C@H](Cc2cccc(OCC(=O)O)c2)NC(=O)CN(C)C(=O)[C@H]([C@@H](C)OC)NC(=O)[C@H](Cc2ccccc2)N(C)C(=O)[C@H](Cc2ccc(O)cc2)NC(=O)[C@H](Cc2c[nH]c3ccccc23)NC(=O)[C@H](C)NC(=O)[C@H](C)NC(=O)CSC[C@H](C(=O)N2CCC(CC(=O)O)CC2)NC(=O)[C@H](Cc2ccccc2)N(C)C(=O)[C@H](CCC(=O)O)N(C)C1=O` [Myostatin_99_v340] ({CH2CO}-AAWY[NMeF]T(Me)[Sar][Phe(3-OCH2COOH)][Phe(4-COOH)]R[NMeF][Gly(decyl)][NMeE][NMeF][dC]-{Piperidinyl(4-CH2COOH)}; thioether N-15), the inhibition at 0.1 µM in test [1] (setting [5]) turned out to be 100%. In test [1] (setting [6]), the inhibition at 0.03 µM is 95%. Also, the inhibition in test [2] (setting [7]) and in test [2] (setting [8]) was 0% in each case.
As to `CCCCCCC[C@@H]1NC(=O)[C@H](Cc2ccccc2)N(C)C(=O)[C@H](CCCNC(=N)N)NC(=O)[C@H](Cc2ccc(C(=O)O)cc2)NC(=O)[C@H](Cc2cccc(OCC(=O)O)c2)NC(=O)CN(C)C(=O)[C@H]([C@@H](C)CC)NC(=O)[C@H](Cc2ccccc2)N(C)C(=O)[C@H](Cc2ccc(O)cc2)NC(=O)[C@H](Cc2c[nH]c3ccccc23)NC(=O)[C@H](C)NC(=O)[C@H](C)NC(=O)CSC[C@H](C(=O)N2CCC(CCC(=O)O)CC2)NC(=O)[C@H](Cc2ccccc2)N(C)C(=O)[C@H](C)N(C)C1=O` [Myostatin_99_v314] ({CH2CO}-AAWY[NMeF]I[Sar][Phe(3-OCH2COOH)][Phe(4-COOH)]R[NMeF][X1][NMeA][NMeF][dC]-X12; thioether N-15), the inhibition at 0.1 µM in test [1] (setting [5]) was 100%. Also, the inhibition at 0.03 µM in test [1] (setting [6]) came to 100%. The inhibition in test [2] (setting [7]) is 2%; in test [2] (setting [8]), 51%.
As for `CCCCCCC[C@@H]1NC(=O)[C@H](Cc2ccccc2)N(C)C(=O)[C@H](CCCNC(=N)N)NC(=O)[C@H](Cc2ccc(C(=O)O)cc2)NC(=O)[C@H](Cc2cccc(OCC(=O)O)c2)NC(=O)[C@H](C)N(C)C(=O)[C@H]([C@@H](C)CC)NC(=O)[C@H](Cc2ccccc2)N(C)C(=O)[C@H](Cc2ccc(O)cc2)NC(=O)[C@H](Cc2c[nH]c3cc(O)ccc23)NC(=O)[C@H](C)NC(=O)CN(CCCC(=O)O)C(=O)CSC[C@H](C(=O)O)NC(=O)[C@H](Cc2ccccc2)N(C)C(=O)[C@H](C)N(C)C1=O` [Myostatin_99_v318] ({CH2CO}-[Gly(N(CH2)3COOH)]A[Trp(6-OH)]Y[NMeF]I[NMeA][Phe(3-OCH2COOH)][Phe(4-COOH)]R[NMeF][X1][NMeA][NMeF][dC]-OH; thioether N-15), the inhibition at 0.1 µM in test [1] (setting [5]) is 100%. Moreover, in test [1] (setting [6]), the inhibition at 0.03 µM amounted to 100%. Further, the values for the inhibition in test [2] (setting [7]) and in test [2] (setting [8]) were 0% and 19%, respectively.
On to `CC[C@H](C)[C@@H]1NC(=O)[C@H](Cc2ccccc2)N(C)C(=O)[C@H](Cc2ccc(O)cc2)NC(=O)[C@H](Cc2c[nH]c3ccccc23)NC(=O)[C@H](CCCNC(=N)N)NC(=O)[C@H](C)NC(=O)CSC[C@H](C(N)=O)NC(=O)[C@H](Cc2ccccc2)N(C)C(=O)[C@H](C)N(C)C(=O)[C@H](CC(C)C)NC(=O)[C@H](Cc2ccccc2)N(C)C(=O)[C@H](CCCNC(=N)N)NC(=O)[C@H](Cc2ccc(O)cc2)NC(=O)[C@H](Cc2ccc(O)cc2)NC(=O)CN(C)C1=O` [Myostatin_000099_15dc] ({CH2CO}-ARWY[NMeF]I[Sar]YYR[NMeF]L[NMeA][NMeF][dC]-NH2; thioether N-15), for which the inhibition at 0.03 µM came out at 69% in test [1] (setting [3]) and 0% in test [2]. Moreover, the inhibition at 0.1 µM is 89% in test [1] (setting [4]) and 12% in test [2].
In the case of `CC[C@H](C)[C@@H]1NC(=O)[C@H](Cc2ccccc2)N(C)C(=O)[C@H](Cc2ccc(O)cc2)NC(=O)[C@H](Cc2c[nH]c3ncccc23)NC(=O)[C@H](CCC(=O)O)NC(=O)[C@H](C)NC(=O)CSC[C@H](C(=O)N[C@H](CO)C(=O)N[C@H](CO)C(=O)N[C@H](CO)C(=O)N[C@H](CCCCN)C(=O)O)NC(=O)[C@H](Cc2ccccc2)N(C)C(=O)[C@H](C)N(C)C(=O)[C@H](CC(C)C)NC(=O)[C@H](Cc2ccccc2)N(C)C(=O)[C@H](CCCNC(=N)N)NC(=O)[C@H](Cc2ccc(C(=O)O)cc2)NC(=O)[C@H](Cc2ccccc2)NC(=O)CN(C)C1=O` [Myostatin_99_v39] ({CH2CO}-AE[Trp(7-aza)]Y[NMeF]I[Sar]F[Phe(4-COOH)]R[NMeF]L[NMeA][NMeF][dC][dS][dS][dS][dK]-OH; thioether N-15), the inhibition at 0.03 µM in test [1] (setting [3]) was determined as 39%; in test [2], 0%. The inhibition at 0.1 µM came out at 79% in test [1] (setting [4]) and 11% in test [2].
For `CCCCCCC[C@@H]1NC(=O)[C@H](Cc2ccccc2)N(C)C(=O)[C@H](CCCNC(=N)N)NC(=O)[C@H](Cc2ccc(C(=O)O)cc2)NC(=O)[C@H](Cc2ccncc2)NC(=O)CN(C)C(=O)[C@H]([C@@H](C)CC)NC(=O)[C@H](Cc2ccccc2)N(C)C(=O)[C@H](Cc2ccc(O)cc2)NC(=O)[C@H](Cc2c[nH]c3ccccc23)NC(=O)[C@H](C)NC(=O)CN(CC(=O)O)C(=O)CSC[C@H](C(=O)O)NC(=O)[C@H](Cc2ccccc2)N(C)C(=O)[C@H](C)N(C)C1=O` [Myostatin_99_v222], in that order: 93%, 0%, 99% and 8%.

Values taken from patent EP4786487A1, “PEPTIDE” (Peptidream Inc, priority 2023, dated 2025).
